According to US9387204B2, “Fused bicyclic imidazoles” (BAYER INTELLECTUAL PROPERTY GmbH, priority 2007, dated 2016):
Like-named read-outs stand apart in the source and are kept apart here.

Tests used:
phospho-Akt (Ser473) = experiment: Cellular PI3K/Akt pathway assay (phospho-Akt ELISA); assay type: cell-based; conditions: MCF7 cells, β-Heregulin stimulated, 48 h, phospho-Akt1 (Ser473) ELISA
Method: In order to study the cellular activity of the compounds according to the present invention, an Enzyme Linked Immunosorbent Assay (ELISA)-based assay has been used specific phospho-AKT. The assay is based on a Sandwich ELISA kit (PathScan™ Phospho-Akt1 (Ser473); Cell Signaling, USA; #7160).
The ELISA Kit detects endogenous levels of phosphorylated Akt protein. A phospho-Akt (Ser473) antibody (Cell Signaling, USA; #9271) has been coated onto the microwells. After incubation with cell lysates, the coated antibody captures the phosphorylated Akt protein. Following extensive washing, Akt1 monoclonal antibody (Cell Signaling, USA; #2967) is added to detect the captured phospho-Akt1 protein. HRP-linked anti-mouse antibody (HRP: horseradish peroxidase; Cell Signaling, USA; #7076) is then used to recognize the bound detection antibody. HRP substrate (=3,3′,5,5′-tetramethylbenzidine (TMB); Cell Signaling, USA; #7160) is added to develop colour. The magnitude of optical density for this developed color is proportional to the quantity of phosphorylated Akt protein. MCF7 cells (ATCC HTB-22) are seeded into 96 well fate bottom plates at a density of 10000 cells/well. 24 hours after seeding, the cells are serum starved using low-serum medium (IMEM media including 0.1% charcoal treated FCS (FCS: fetal calf serum)). […] To stimulate Akt phosphorylation, β-Heregulin (20 ng/ml β-HRG) is added in parallel to the compounds. Wells containing unstimulated control cells (no β-Heregulin stimulation) are incubated with or without the diluted compound. Wells containing untreated control cells (no compound) are filled with medium containing 0.5% v:v DMSO and are or are not stimulated with β-Heregulin.
Cells are harvested and lysed with brief sonification in 1× cell lysis buffer (20 mM Tris (pH7.5), 150 mM NaCl, 1 mM ethylene diaminetetraacetate (EDTA), 1 mM ethylene glycolbis(2-aminoethyl)-N,N,N′,N′-tetraacetic acid (EGTA), 1 vol % Triton X-100, 2.5 mM sodium pyrophosphate, 1 mM β-glycerolphosphate, 1 mM Na3VO4, 1 μg/ml leupeptin). The lysate is centrifuged for 10 min. at 4° C. and the supernatant is transferred to a new tube. 100 μl of sample diluent (0.1 vol % Tween-20, 0.1 vol % sodium azide in phosphate buffered saline (PBS)) are added to a microcentrifuge tube and 100 μl of cell lysate are transferred into the tube and vortexed. 100 μl of each diluted cell lysate are added to the appropriate ELISA well, and incubated overnight at 4° C. The plates are washed 4 times with 1× wash buffer (1 vol % tween-20, 0.33 vol % thymol, in PBS). Next 100 μl of detection antibody (Akt1 (2H10) monoclonal detection antibody; Cell Signaling, USA; #2967) are added to each well and incubation continued for 1 h at 37° C. The washing procedure is repeated between each step. 100 μl of secondary antibody (anti-mouse IgG HRP-linked antibody; Cell Signaling, USA; #7076) are added to each well and incubated for 30 min. at 37° C. Than, 100 μl of TMB substrate (0.05% 3,3′,5,5′ tetramethylbenzidine, 0.1% hydrogen peroxide, complex polypeptides in a buffered solution; Cell Signaling, USA; #7160) are added to each well and incubated for 30 min. at 25° C. Finally 100 μl of STOP solution (0.05 vol % α and β unsaturated carbonyl compound) are added to each well and the plate are shaked gently. The absorbance is measured at ? 450 nm (Wallac Victor2; Perkin Elmer, USA) within 30 min. after adding the STOP solution. The analysis of the data is performed using a statistical program (Excel; Microsoft, USA). Preferred compounds show an inhibitory activity towards Akt phosphorylation below 10 μM.

A549 cells = experiment: Cellular proliferation/cytotoxicity assay (Alamar Blue), A549 cells; conditions: read-out: Anti-proliferative/Cytotoxic activity (A549 cells)
OvCAR3 cells = experiment: Cellular proliferation/cytotoxicity assay (Alamar Blue), OvCAR3 cells; assay type: cell-based; conditions: Homo sapiens, OVCAR-3, 72 h, Alamar Blue (Resazurin), read-out: Anti-proliferative/Cytotoxic activity (OvCAR3 cells)
Excerpt: Viabilities are expressed as % values.

[1] = A549 cells, 72 h, Alamar Blue (Resazurin)

| Compound | IC50 (phospho-Akt (Ser473); Homo sapiens) | IC50 (A549 cells; [1]) | IC50 (A549 cells; Homo sapiens, A549, 72 h) | other results |
| --- | --- | --- | --- | --- |
| Cc1cccc(-c2nnc(C3CCN(Cc4ccc(-c5nc6sccn6c5-c5ccccc5)cc4)CC3)[nH]2)n1 [Example 66, ′6-[4-({4-[5-(6-methylpyridin-2-yl)-4H-1,2,4-triazol-3-yl]piperidin-1-yl}methyl)phenyl]-5-phenylimidazo[2,1-b][1,3]thiazole] | – | < 10 µM | – | IC50 (phospho-Akt (Ser473)): < 1 µM |
| N=C(N)c1cccn2c(-c3ccccc3)c(-c3ccc(CN4CCC(c5n[nH]c(-c6ccccn6)n5)CC4)cc3)nc12 [Example 33, 3-phenyl-2-(4-{[4-(5-pyridin-2-yl-1,2,4-triazol-3-yl)piperidin-1-yl]methyl}phenyl)imidazo[1,2-a]pyridine-8-carboximidamide] | – | – | < 10 µM | IC50 (OvCAR3 cells): < 10 µM |
| N#Cc1cccn2c(-c3ccccc3)c(-c3ccc(CN4CCC(c5n[nH]c(-c6ccccn6)n5)CC4)cc3)nc12 [Example 5, 3-phenyl-2-(4-{[4-(5-pyridin-2-yl-1,2,4-triazol-3-yl)piperidin-1-yl]methyl}phenyl)imidazo[1,2-a]pyridine-8-carbonitrile] | – | – | < 10 µM | IC50 (OvCAR3 cells): < 10 µM |
| c1ccc(-c2c(-c3ccc(CN4CCC(c5nnc(-c6ccco6)[nH]5)CC4)cc3)nc3sccn23)cc1 [Example 93, ′6-[4-({4-[5-(2-furyl)-4H-1,2,4-triazol-3-yl]piperidin-1-yl}methyl)phenyl]-5-phenylimidazo[2,1-b][1,3]thiazole] | – | < 10 µM | – | IC50 (phospho-Akt (Ser473)): < 1 µM |
| FC(F)(F)c1nn2c(-c3ccccc3)c(-c3ccc(CN4CCC(c5nnc(-c6ccccn6)[nH]5)CC4)cc3)nc2s1 [Example 48, 5-phenyl-6-[4-({4-[5-(pyridin-2-yl)-4H-1,2,4-triazol-3-yl]piperidin-1-yl}methyl)phenyl]-2-(trifluoromethyl)imidazo[2,1-b][1,3,4]thiadiazole] | – | – | > 10 µM | – |
| Clc1ccc(-c2nnc(C3CCN(Cc4ccc(-c5nc6ncccn6c5-c5ccccc5)cc4)CC3)[nH]2)nc1 [Example 76, ′2-[4-({4-[5-(5-chloropyridin-2-yl)-4H-1,2,4-triazol-3-yl]piperidin-1-yl}methyl)phenyl]-3-phenylimidazo[1,2-a]pyrimidine] | – | < 10 µM | – | – |
| c1ccc(-c2c(-c3ccc(CN4CCC(c5nnc(-c6ccc[nH]6)[nH]5)CC4)cc3)nc3sccn23)cc1 [Example 109, ′5-phenyl-6-[4-({4-[5-(1H-pyrrol-2-yl)-4H-1,2,4-triazol-3-yl]piperidin-1-yl}methyl)phenyl]imidazo[2,1-b][1,3]thiazole] | – | < 10 µM | – | – |
| c1ccc(-c2c(-c3ccc(CN4CCC(c5nnc(-c6cccs6)[nH]5)CC4)cc3)nc3ccccn23)cc1 [Example 97, ′3-phenyl-2-[4-({4-[5-(2-thienyl)-4H-1,2,4-triazol-3-yl]piperidin-1-yl}methyl)phenyl]imidazo[1,2-a]pyridine] | – | < 10 µM | – | – |
| c1ccc(-c2c(-c3ccc(CN4CCC(c5nnc(-c6ccc[nH]6)[nH]5)CC4)cc3)nc3ncccn23)cc1 [Example 106, ′3-phenyl-2-[4-({4-[5-(1H-pyrrol-2-yl)-4H-1,2,4-triazol-3-yl]piperidin-1-yl}methyl)phenyl]imidazo[1,2-a]pyrimidine] | – | > 10 µM | – | IC50 (phospho-Akt (Ser473)): < 1 µM |
| c1ccc(-c2c(-c3ccc(CN4CCC(c5cc(-c6ccccn6)[nH]n5)CC4)cc3)nc3scnn23)cc1 [Example 112, ′5-phenyl-6-(4-{[4-(5-pyridin-2-yl-1H-pyrazol-3-yl)piperidin-1-yl]methyl}phenyl)imidazo[2,1-b][1,3,4]thiadiazole] | – | < 10 µM | – | – |
| Brc1ccc2nc(-c3ccc(CN4CCC(c5n[nH]c(-c6ccccn6)n5)CC4)cc3)c(-c3ccccc3)n2c1 [Example 6, 6-bromo-3-phenyl-2-(4-{[4-(5-pyridin-2-yl-1,2,4-triazol-3-yl)piperidin-1-yl]methyl}phenyl)imidazo[1,2-a]pyridine] | – | – | < 10 µM | – |
| Cc1ccc(-c2nnc(C3CCN(Cc4ccc(-c5nc6scnn6c5-c5ccccc5)cc4)CC3)[nH]2)nc1 [Example 74, ′6-[4-({4-[5-(5-methylpyridin-2-yl)-4H-1,2,4-triazol-3-yl]piperidin-1-yl}methyl)phenyl]-5-phenylimidazo[2,1-b][1,3,4]thiadiazole] | – | < 10 µM | – | – |
| c1ccc(-c2c(-c3ccc(CN4CCC(c5n[nH]c(-c6ccncc6)n5)CC4)cc3)nc3ncccn23)cc1 [Example 55, ′3-phenyl-2-(4-{[4-(5-pyridin-4-yl-1H-1,2,4-triazol-3-yl)piperidin-1-yl]methyl}phenyl)imidazo[1,2-a]pyrimidine] | – | > 10 µM | – | – |
| COc1nccn2c(-c3ccccc3)c(-c3ccc(CN4CCC(c5nnc(-c6cccc(C)n6)[nH]5)CC4)cc3)nc12 [Example 65, ′8-methoxy-2-[4-({4-[5-(6-methylpyridin-2-yl)-4H-1,2,4-triazol-3-yl]piperidin-1-yl}methyl)phenyl]-3-phenylimidazo[1,2-a]pyrazine] | – | < 10 µM | – | IC50 (phospho-Akt (Ser473)): < 1 µM |

Second part, led by results:

| IC50 (phospho-Akt (Ser473); Homo sapiens) | Compound | IC50 (A549 cells; [1]) | IC50 (A549 cells; Homo sapiens, A549, 72 h) | other results |
| --- | --- | --- | --- | --- |
| < 1 µM | N#Cc1cccn2c(-c3ccccc3)c(-c3ccc(CN4CCC(c5nnc(-c6ccccc6)[nH]5)CC4)cc3)nc12 [Example 117, 3-phenyl-2-(4-{[4-(5-phenyl-4H-1,2,4-triazol-3-yl)piperidin-1-yl]methyl}phenyl)imidazo[1,2-a]pyridine-8-carbonitrile] | – | > 10 µM | – |
| < 1 µM | N#Cc1cccn2c(-c3ccccc3)c(-c3ccc(CN4CCC(c5nnc(-c6ncccn6)[nH]5)CC4)cc3)nc12 [Example 77, 3-phenyl-2-[4-({4-[5-(pyrimidin-2-yl)-4H-1,2,4-triazol-3-yl]piperidin-1-yl}methyl)phenyl]imidazo[1,2-a]pyridine-8-carbonitrile] | – | > 10 µM | – |
| 1 to 10 µM | c1ccc(-c2nnc(C3CCN(Cc4ccc(-c5nc6sccn6c5-c5ncco5)cc4)CC3)[nH]2)nc1 [Example 43, 5-(1,3-oxazol-2-yl)-6-(4-{[4-(5-pyridin-2-yl-4H-1,2,4-triazol-3-yl)piperidin-1-yl]methyl}phenyl)imidazo[2,1-b][1,3]thiazole] | – | – | – |
| < 1 µM | Cc1cccc(-c2nnc(C3CCN(Cc4ccc(-c5nc6c(C#N)cccn6c5-c5ccccc5)cc4)CC3)[nH]2)n1 [Example 62, 2-[4-({4-[5-(6-methylpyridin-2-yl)-4H-1,2,4-triazol-3-yl]piperidin-1-yl}methyl)phenyl]-3-phenylimidazo[1,2-a]pyridine-8-carbonitrile] | – | > 10 µM | – |
| < 1 µM | Cc1cccc(-c2nnc(C3CCN(Cc4ccc(-c5nc6cc(C#N)ccn6c5-c5ccccc5)cc4)CC3)[nH]2)n1 [Example 61, 2-[4-({4-[5-(6-methylpyridin-2-yl)-4H-1,2,4-triazol-3-yl]piperidin-1-yl}methyl)phenyl]-3-phenylimidazo[1,2-a]pyridine-7-carbonitrile] | – | > 10 µM | – |
| < 1 µM | COC(=O)c1ccn2c(-c3ccccc3)c(-c3ccc(CN4CCC(c5nnc(-c6ccccn6)[nH]5)CC4)cc3)nc2c1 [Example 124, methyl 3-phenyl-2-[4-({4-[5-(pyridin-2-yl)-4H-1,2,4-triazol-3-yl]piperidin-1-yl}methyl)phenyl]imidazo[1,2-a]pyridine-7-carboxylate] | – | > 10 µM | – |
